Laboratory results as given in ChEMBL document CHEMBL1129576, “Nucleosides and nucleotides. 158. 1-(3-C-ethynyl-beta-D-ribo-pentofuranosyl)-cytosine, 1-(3-C-ethynyl-beta-D-ribo-pentofuranosyl)uracil, and their nucleobase analogues as new potential multifunctional antitumor nucleosides with a broad spectrum of activity” (J Med Chem, 1996).

Assays:
[1] = test system: KB; test: In vitro tumor cell growth inhibitory activity against human nasopharyngeal KB cell lines; format: functional, cell-based
[2] = test system: SK-MEL-28; test: In vitro tumor cell growth inhibitory activity against Human melanoma cell lines. SK-MEL-28; format: functional, cell-based
[3] = test system: NAKAJIMA; test: In vitro tumor cell growth inhibitory activity against Human stomach (adenocarcinoma) cell lines. h) NAKAJIMA; format: functional, cell-based
[4] = test system: Mus musculus; test: In vivo inhibitory activity against PAN-12 tumor xenograft of pancreas in nude mice at a concentration of 2 mg/kg for 10 days; format: functional
[5] = test system: fLS; test: In vitro tumor cell growth inhibitory activity of Human stomach (adenocarcinoma) cell lines. fLS; format: functional, cell-based
[6] = test system: Mus musculus; test: In vivo inhibitory activity against KM12C tumor xenograft of […] in nude mice at a concentration of 2 mg/kg for 10 days; format: functional
[7] = test system: PANC-1; test: In vitro tumor cell growth inhibitory activity against Human pancreas (adenocarcinoma) cell lines. PANC-1; format: functional, cell-based
[8] = test system: SW480; test: In vitro tumor cell growth inhibitory activity against Human colon (adenocarcinoma) cell lines. SW-480; format: functional, cell-based
[9] = test system: HT-1080; test: In vitro tumor cell growth inhibitory activity against Human fibrosarcoma HT1080 cell lines.; format: functional, cell-based
[10] = test system: KK-47 cell line; test: In vitro tumor cell growth inhibitory activity against Human bladder carcinoma cell lines. kK-47; format: functional, cell-based
[11] = test system: MKN-45 (Homo sapiens); test: In vitro tumor cell growth inhibitory activity against Human stomach (adenocarcinoma) cell lines. MKN-45
[12] = test system: QG-56; test: In vitro tumor cell growth inhibitory activity against Human lung squamous-cell carcinoma cell linesQG-56; format: functional, cell-based
[13] = test system: QG-96; test: In vitro tumor cell growth inhibitory activity against Human lung small-cell carcinoma cellb) QG-96; format: functional, cell-based
[14] = test system: L1210; test: In vitro tumor cell growth inhibitory activity against mouse leukemia L1210 cell lines.; format: functional, cell-based
[15] = test system: Mus musculus; test: In vivo inhibitory activity against Hucc-T1 cells tumor xenograft of bile duct in nude mice at a concentration of 2 mg/kg for 10 days; format: functional
[16] = test system: PC-9; test: In vitro tumor cell growth inhibitory activity against Human lung (adenocarcinoma) cell lines PC-9; format: functional, cell-based
[17] = test system: T-24; test: In vitro tumor cell growth inhibitory activity against Human bladder carcinoma cell lines. T24; format: functional, cell-based
[18] = test system: A-431; test: In vitro tumor cell growth inhibitory activity against Human […] A431 cell lines; format: functional, cell-based
[19] = test system: Lu-65; test: In vitro tumor cell growth inhibitory activity against Human lung large-cell carcinoma Lu-65 cell lines.; format: functional, cell-based
[20] = test system: Mus musculus; test: In vivo inhibitory activity against JRC-11 cell tumor xenograft of renal in nude mice at a concentration of 2 mg/kg for 10 days; format: functional
[21] = test system: NCI-H417; test: In vitro tumor cell growth inhibitory activity against Human lung small-cell carcinoma cell NCI-H-417; format: functional, cell-based
[22] = test system: NCI-H82 (Homo sapiens); test: In vitro tumor cell growth inhibitory activity against Human lung small-cell carcinoma cellc) NCI-H-82
[23] = test system: ST-KM-1; test: In vitro tumor cell growth inhibitory activity against Human stomach (adenocarcinoma) cell linesST-KM; format: functional, cell-based
[24] = test system: MKN-28; test: In vitro tumor cell growth inhibitory activity against Human stomach (adenocarcinoma) cell lines. MKN-28; format: functional, cell-based
[25] = test system: Mus musculus; test: In vivo inhibitory activity against DLD-1 tumor xenograft of […] in nude mice at a concentration of 2 mg/kg for 10 days; format: functional
[26] = test system: Mus musculus; test: In vivo inhibitory activity against NUGC-3 tumor xenograft of stomach in nude mice at a concentration of 2 mg/kg for 10 days; format: functional
[27] = test system: YMB-1-E; test: In vitro tumor cell growth inhibitory activity against Human breast (adenocarcinoma) cell lines YMB-1-E.; format: functional, cell-based
[28] = test system: Mus musculus; test: In vivo inhibitory activity against H-31 cells tumor xenograft of breast in nude mice at a concentration of 2 mg/kg for 10 days; format: functional
[29] = test system: KB; test: In vitro tumor cell growth inhibitory activity against Human melanoma cell lines. KB; format: functional, cell-based
[30] = test system: Mus musculus; test: In vivo inhibitory activity against BxPC-3 tumor xenograft of pancreas in nude mice at a concentration of 2 mg/kg for 10 days; format: functional
[31] = test system: HOS; test: In vitro tumor cell growth inhibitory activity against Human osteosarcoma cell lines. HOS; format: functional, cell-based
[32] = test system: A-375; test: In vitro tumor cell growth inhibitory activity against Human melanoma cell lines. A375; format: functional, cell-based
[33] = test system: NUGC-4; test: In vitro tumor cell growth inhibitory activity of Human stomach (adenocarcinoma) cell lines. NUGC-4; format: functional, cell-based
[34] = test system: Mus musculus; test: In vivo inhibitory activity against AZ-521 tumor xenograft of stomach in nude mice at a concentration of 2 mg/kg for 10 days; format: functional
[35] = In vitro tumor cell growth inhibitory activity against Human stomach (adenocarcinoma) cell lines STSA-1
[36] = test system: PC-8; test: In vitro tumor cell growth inhibitory activity against Human lung (adenocarcinoma) cell lines. PC-8; format: functional, cell-based
[37] = test system: MCF7; test: In vitro tumor cell growth inhibitory activity against Human breast (adenocarcinoma) cell lines. MCF-7; format: functional, cell-based
[38] = test system: PC10; test: In vitro tumor cell growth inhibitory activity against Human lung (adenocarcinoma) cell lines PC-10; format: functional, cell-based
[39] = test system: MDA-MB-231; test: In vitro tumor cell growth inhibitory activity against Human breast (adenocarcinoma) cell lines. […]; format: functional, cell-based
[40] = test system: Mus musculus; test: In vivo inhibitory activity against H-81 tumor xenograft of stomach in nude mice at a concentration of 2 mg/kg for 10 days; format: functional
[41] = test system: KATO III stomach cancer cell line; test: In vitro tumor cell growth inhibitory activity of Human stomach (adenocarcinoma) cell lines. KATO-III; format: functional, cell-based
[42] = test system: MIA PaCa-2 (Homo sapiens); test: In vitro tumor cell growth inhibitory activity against Human pancreas (adenocarcinoma) cell Mia-PaCa-2
[43] = test system: SW48; test: In vitro tumor cell growth inhibitory activity against Human colon (adenocarcinoma) cell lines. SW-48; format: functional, cell-based
[44] = In vitro tumor cell growth inhibitory activity against Human lung squamous-cell carcinoma cell lines QG-95; format: functional
[45] = test system: Mus musculus; test: In vivo inhibitory activity against CO-3 tumor xenograft of […] in nude mice at a concentration of 2 mg/kg for 10 days; format: functional
[46] = test system: QG-90; test: In vitro tumor cell growth inhibitory activity against Human lung small-cell carcinoma cell lines. QG-90; format: functional, cell-based
[47] = test system: MG-63; test: In vitro tumor cell growth inhibitory activity against Human osteosarcoma cell lines MG-63.; format: functional, cell-based
[48] = test system: HCT-15; test: In vitro tumor cell growth inhibitory activity against HCT-15; format: functional, cell-based; conditions: Homo sapiens
[49] = test system: Mus musculus; test: In vivo inhibitory activity against PAN-12 tumor xenograft of pancreas in nude mice at a concentration of 15 mg/kg for 15 days; format: functional
[50] = test system: Mus musculus; test: In vivo tumor cell growth inhibitory activity against JRC-11 cells tumor xenograft of renal in nude mice at a concentration of 15 mg/kg for 15 days; format: functional
[51] = test system: Mus musculus; test: In vivo tumor cell growth inhibitory activity against DLD-1 tumor xenograft of […] in nude mice at a concentration of 15 mg/kg for 15 days; format: functional
[52] = test system: Mus musculus; test: In vivo tumor cell growth inhibitory activity against Hucc-T1 cells tumor xenograft of bile duct in nude mice at a concentration of 15 mg/kg for 15 days; format: functional
[53] = test system: Mus musculus; test: In vivo inhibitory activity against BxPC-3 tumor xenograft of pancreas in nude mice at a concentration of 15 mg/kg for 15 days; format: functional
[54] = test system: Mus musculus; test: In vivo tumor cell growth inhibitory activity of H-81 tumor xenograft of stomach in nude mice at a concentration of 15 mg/kg for 15 days; format: functional
[55] = test system: Mus musculus; test: In vivo tumor cell growth inhibitory activity against KM12C tumor xenograft of […] in nude mice at a concentration of 15 mg/kg for 15 days; format: functional
[56] = test system: Mus musculus; test: In vivo tumor cell growth inhibitory activity of CO-3 tumor xenograft of […] in nude mice at a concentration of 15 mg/kg for 15 days; format: functional
[57] = test system: Mus musculus; test: In vivo tumor cell growth inhibitory activity against H-31 cells tumor xenograft of breast in nude mice at a concentration of 15 mg/kg for 15 days; format: functional
[58] = test system: Mus musculus; test: In vivo tumor cell growth inhibitory activity against AZ-521 tumor xenograft of stomach in nude mice at a concentration of 15 mg/kg for 15 days; format: functional

Which IC50 [1] does the source give for `C#C[C@]1(O)[C@@H](CO)O[C@@H](n2ccc(=O)[nH]c2=O)[C@@H]1O` here?
The IC50 was 29 nM.

And the IC50 [2]?
The IC50 was 86 nM.

And the IC50 [3]?
The IC50 was 780 nM.

And the Inhibition ratio [4]?
The Inhibition ratio was 81%.

What about the IC50 [5] of the same compound?
The IC50 was 230 nM.

And the Inhibition ratio [6]?
Its Inhibition ratio is 81%.

And the IC50 [7]?
Its IC50 is greater than 1900 nM.

What about the IC50 [8] of the same compound?
Its IC50 is 340 nM.

What about the IC50 [9] of the same compound?
The IC50 was 160 nM.

And the IC50 [10]?
The IC50 was 89 nM.

What about the IC50 [11] of the same compound?
Its IC50 is 52 nM.

And the IC50 [12]?
Its IC50 is 150 nM.

What about the IC50 [13] of the same compound?
The IC50 was 380 nM.

And the IC50 [14]?
Its IC50 is 130 nM.

What about the Inhibition ratio [15] of the same compound?
Its Inhibition ratio is 64%.

What about the IC50 [16] of the same compound?
The IC50 was 190 nM.

And the IC50 [17]?
Its IC50 is 210 nM.

And the IC50 [18]?
Its IC50 is 290 nM.

And the IC50 [19]?
The IC50 was 89 nM.

And the Inhibition ratio [20]?
Its Inhibition ratio is 75%.

What about the IC50 [21] of the same compound?
The IC50 was 110 nM.

What about the IC50 [22] of the same compound?
Its IC50 is 230 nM.

And the IC50 [23]?
The IC50 was 86 nM.

And the IC50 [24]?
The IC50 was 65 nM.

And the Inhibition ratio [25]?
Its Inhibition ratio is 73%.

What about the Inhibition ratio [26] of the same compound?
The Inhibition ratio was 54%.

What about the IC50 [27] of the same compound?
Its IC50 is greater than 1900 nM.

What about the Inhibition ratio [28] of the same compound?
The Inhibition ratio was 82%.

And the IC50 [29]?
The IC50 was 29 nM.

What about the Inhibition ratio [30] of the same compound?
The Inhibition ratio was 35%.

And the IC50 [31]?
The IC50 was 1800 nM.

What about the IC50 [32] of the same compound?
Its IC50 is 21 nM.

And the IC50 [33]?
The IC50 was 220 nM.

And the Inhibition ratio [34]?
Its Inhibition ratio is 81%.

And the IC50 [35]?
Its IC50 is 1900 nM.

And the IC50 [36]?
The IC50 was 330 nM.

What about the IC50 [37] of the same compound?
Its IC50 is 200 nM.

And the IC50 [38]?
Its IC50 is greater than 1900 nM.

What about the IC50 [39] of the same compound?
The IC50 was greater than 1900 nM.

What about the Inhibition ratio [40] of the same compound?
Its Inhibition ratio is 92%.

What about the IC50 [41] of the same compound?
Its IC50 is 31 nM.

What about the IC50 [42] of the same compound?
The IC50 was 54 nM.

What about the IC50 [43] of the same compound?
The IC50 was greater than 1900 nM.

What about the IC50 [44] of the same compound?
The IC50 was 280 nM.

And the Inhibition ratio [45]?
The Inhibition ratio was 90%.

What about the IC50 [46] of the same compound?
The IC50 was 1000 nM.

What about the IC50 [47] of the same compound?
Its IC50 is greater than 1900 nM.

And the IC50 [48]?
Its IC50 is 75 nM.

What does the source list for `O=c1[nH]cc(F)c(=O)[nH]1` [FLUOROURACIL]?
Inhibition ratio [49]: 40%; Inhibition ratio [50]: 69%; Inhibition ratio [51]: 50%; Inhibition ratio [52]: 1%; Inhibition ratio [53]: 50%; Inhibition ratio [54]: 83%; Inhibition ratio [55]: 59%; Inhibition ratio [56]: 49%; Inhibition ratio [57]: 68%; Inhibition ratio [58]: 25%
